From patent US8937092B2, “Aryl or N-heteroaryl substituted methanesulfonamide derivatives as vanilloid receptor ligands” (Gruenenthal GmbH, priority 2011, dated 2015)

Biological target: vanilloid receptor 1 (VR1/TRPV1 receptor) (Homo sapiens, UniProt Q8NER1)
Assay: Functional FLIPR Ca2+ influx assay on vanilloid receptor 1, capsaicin (Cap) stimulus
Assay type: cell-based
Details: for Ki: Ki from IC50 by Cheng-Prusoff, read-out: (f) Ki (human being) [nM], Cap
How it was run: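 Antagonism of Ca2+ influx stimulated by capsaicin (100 nM) in CHO K1 cells transfected with human VR1, read with Fluo-4 dye in a FLIPR; value is concentration giving 50% displacement of capsaicin. Rat VR1 variant uses cultured rat dorsal root ganglion neurons in NGF-containing medium.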

Compound | Ki | (f) inhibition (human being), Cap, @1 μM (inhibition at 1 μM)
CC(C(=O)NCc1ccc(C(F)(F)F)nc1-c1cncc(Cl)c1)c1ccc(CNS(C)(=O)=O)c(F)c1 (stereo not drawn) [Example 73, N-((5′-chloro-6-(trifluoromethyl)-2,3′-bipyridin-3-yl)methyl)-2-(3-fluoro-4-(methylsulfonamidomethyl)phenyl)propanamide] | 24 nM | –
Cc1cccc(-c2nc(C(F)(F)F)ccc2CNC(=O)C(C)c2ccc(CNS(C)(=O)=O)c(Cl)c2)c1 (stereo not drawn) [Example 77, 2-(3-chloro-4-(methylsulfonamidomethyl)phenyl)-N-((2-m-tolyl-6-(trifluoromethyl)pyridin-3-yl)methyl)propanamide] | 3 nM | –
COc1cc(C(C)C(=O)NCc2ccc(C(F)(F)F)nc2-c2cccc(C)c2)ccc1CNS(C)(=O)=O (stereo not drawn) [Example 78, 2-(3-methoxy-4-(methylsulfonamidomethyl)phenyl)-N-((2-m-tolyl-6-(trifluoromethyl)pyridin-3-yl)methyl)propanamide] | 73 nM | –
COc1cc(NC(=O)NCc2ccc(C(F)(F)F)nc2-c2cccc(C)c2)ccc1CNS(C)(=O)=O [Example 80, N-(2-methoxy-4-(3-((2-m-tolyl-6-(trifluoromethyl)pyridin-3-yl)methyl)ureido)benzyl)methanesulfonamide] | 68 nM | –
Cc1cccc(-c2nc(C(F)(F)F)ccc2CNC(=O)Nc2ccc(CNS(C)(=O)=O)c(C)c2)c1 [Example 81, N-(2-methyl-4-(3-((2-m-tolyl-6-(trifluoromethyl)pyridin-3-yl)methyl)ureido)benzyl)methanesulfonamide] | 7 nM | –
CCS(=O)(=O)NCc1ccc(NC(=O)NCc2ccc(C(F)(F)F)nc2-c2cccc(C)c2)cc1 [Example 82, N-(4-(3-((2-m-tolyl-6-(trifluoromethyl)pyridin-3-yl)methyl)ureido)benzyl)ethanesulfonamide] | 23 nM | –
CCS(=O)(=O)NCc1ccc(C(C)C(=O)NCc2ccc(C(F)(F)F)nc2-c2cccc(C)c2)cc1F (stereo not drawn) [Example 83, 2-(4-(ethylsulfonamidomethyl)-3-fluorophenyl)-N-((2-m-tolyl-6-(trifluoromethyl)pyridin-3-yl)methyl)propanamide] | 74 nM | –
Cc1cccc(-c2nc(C(F)(F)F)ccc2CNC(=O)Nc2ccc(CNS(N)(=O)=O)cc2)c1 [Example 84, 1-{[2-m-tolyll-6-(trifluoromethyl)pyridin-3-yl]methyl}-3-{4-[(sulfamoylamino)methyl]phenyl}urea] | 9 nM | –
Cc1cccc(-c2nc(C(F)(F)F)ccc2CNC(=O)C(C)c2ccc(CNS(N)(=O)=O)c(F)c2)c1 (stereo not drawn) [Example 85, 2-(3-fluoro-4-((sulfamoylamino)methyl)phenyl)-N-((2-m-tolyl-6-(trifluoromethyl)pyridin-3-yl)methyl)propanamide] | 3 nM | –
Cc1cccc(-c2nc(C(F)(F)F)ccc2CNC(=O)Nc2ccc(CNS(N)(=O)=O)c(F)c2)c1 [Example 86, 1-{3-fluoro-4-[(sulfamoylamino)methyl]phenyl}-3-{[2-m-tolyl-6-(trifluoromethyl)pyridin-3-yl]methyl}urea] | 6 nM | –
Cc1cccc(-c2nc(C(F)(F)F)ccc2CNC(=O)C(C)c2ccc(CNS(N)(=O)=O)cc2)c1 (stereo not drawn) [Example 88, 2-(4-((sulfamoylamino)methyl)phenyl)-N-((2-m-tolyl-6-(trifluoromethyl)pyridin-3-yl)methyl)propanamide] | 7 nM | –
N-((2-(2-ethoxy-5-methylphenyl)-6-(trifluoromethyl)pyridin-3-yl)methyl)-2-(3-fluoro-4-(methylsulfonamidomethyl)phenyl)propanamide [Example 48] | – | 15%@1 μM
